# Laboratory results published in PubChem BioAssay AID256 (DTP/NCI, 2004).
# “And” between values parts separate entries of the source, which are not always exact repeats. Equal entries are not always repeated. Inconclusive results and toxic doses are left out.
# System: CD2F1 mice, L1210 leukemia ip, survival T/C
# Test: NCI In Vivo Anticancer Drug Screen. Data for tumor model L1210 Leukemia (intraperitoneal) in CD2F1 (CDF1) mice
# Details: higher = longer survival
# In short: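 Transplantable tumor in mice; compound-treated vs vehicle-treated groups. Read-out = treated/control ratio of the measured endpoint.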
# [1] = endpoint: mean survival time, dose: 25.0 mg/kg/injection, schedule: Q01DX009 (ip), vehicle: saline with Tween-80
# [2] = endpoint: mean survival time, dose: 50.0 mg/kg/injection, schedule: Q01DX009 (ip), vehicle: saline with Tween-80
# [3] = endpoint: mean survival time, dose: 100.0 mg/kg/injection, schedule: Q01DX009 (ip), vehicle: saline with Tween-80
# [4] = endpoint: mean survival time, dose: 200.0 mg/kg/injection, schedule: Q01DX009 (ip), vehicle: saline with Tween-80
# [5] = endpoint: mean survival time, dose: 400.0 mg/kg/injection, schedule: Q01DX009 (ip), vehicle: saline with Tween-80
# [6] = endpoint: mean survival time, dose: 12.5 mg/kg/injection, schedule: Q01DX009 (ip), vehicle: saline with Tween-80
structure (smiles),measurement,setting,value
Cl/C=C(\Cl)CCl,T/C,[1],91 % of control
same,T/C,[2],96 % of control
same,T/C,[3],94 % of control
CCCCCCCC(=O)Nc1ccccc1CC,T/C,[3],94 % of control
same,T/C,[4],100 % of control
same,T/C,[5],102 % of control
COCCCNC1=C(C#N)C(=O)NC(c2cccc([N+](=O)[O-])c2)S1 (centres undefined),T/C,[6],94 % of control
same,T/C,[1],96 % of control
same,T/C,[2],96 % of control
same,T/C,[3],100 % of control
same,T/C,[4],102 % of control
same,T/C,[5],103 % of control
COc1cccnc1/C=N/NC(N)=S,T/C,"endpoint: mean survival time, dose: 3.13 mg/kg/injection, schedule: Q01DX009 (ip), vehicle: saline with Tween-80",118 % of control
same,T/C,"endpoint: mean survival time, dose: 5.54 mg/kg/injection, schedule: Q01DX001 (ip), vehicle: saline with Tween-80",103 % of control
same,T/C,"endpoint: mean survival time, dose: 5.54 mg/kg/injection, schedule: Q01DX009 (ip), vehicle: saline with Tween-80",200 % of control
same,T/C,"endpoint: mean survival time, dose: 5.54 mg/kg/injection, schedule: Q04DX001 (ip), vehicle: saline with Tween-80",102 % of control
same,T/C,"endpoint: mean survival time, dose: 6.25 mg/kg/injection, schedule: Q04DX002 (ip), vehicle: saline with Tween-80",104 % of control
same,T/C,"endpoint: mean survival time, dose: 8.32 mg/kg/injection, schedule: Q01DX001 (ip), vehicle: saline with Tween-80",105 % of control
same,T/C,"endpoint: mean survival time, dose: 8.32 mg/kg/injection, schedule: Q01DX009 (ip), vehicle: saline with Tween-80",162 % of control
same,T/C,"endpoint: mean survival time, dose: 8.32 mg/kg/injection, schedule: Q04DX001 (ip), vehicle: saline with Tween-80",105 % of control
same,T/C,"endpoint: mean survival time, dose: 12.5 mg/kg/injection, schedule: Q01DX001 (ip), vehicle: saline with Tween-80",109 % of control
same,T/C,[6],152 % of control
same,T/C,"endpoint: mean survival time, dose: 12.5 mg/kg/injection, schedule: Q04DX001 (ip), vehicle: saline with Tween-80",111 % of control
same,T/C,"endpoint: mean survival time, dose: 12.5 mg/kg/injection, schedule: Q04DX002 (ip), vehicle: saline with Tween-80",104 % of control
same,T/C,"endpoint: mean survival time, dose: 18.8 mg/kg/injection, schedule: Q01DX001 (ip), vehicle: saline with Tween-80",109 % of control
same,T/C,"endpoint: mean survival time, dose: 18.8 mg/kg/injection, schedule: Q04DX001 (ip), vehicle: saline with Tween-80",105 % of control
CN(C)C=Nc1cnc2ccccc2c1,T/C,"endpoint: mean survival time, dose: 100.0 mg/kg/injection, schedule: Q04DX003 (ip), vehicle: saline with Tween-80",95 % of control
same,T/C,"endpoint: mean survival time, dose: 200.0 mg/kg/injection, schedule: Q04DX003 (ip), vehicle: saline with Tween-80",95 % of control
same,T/C,"endpoint: mean survival time, dose: 400.0 mg/kg/injection, schedule: Q04DX003 (ip), vehicle: saline with Tween-80",96 % of control
O=C(O)CN(CC(=O)O)C1CCCCC1N(CC(=O)O)CC(=O)O.[Cl][Pd][Cl] (centres undefined),T/C,"endpoint: median survival time, dose: 10.0 mg/kg/injection, schedule: Q04DX003 (ip), vehicle: saline",103 % of control
same,T/C,"endpoint: median survival time, dose: 20.0 mg/kg/injection, schedule: Q04DX003 (ip), vehicle: saline",100 % of control
same,T/C,"endpoint: median survival time, dose: 40.0 mg/kg/injection, schedule: Q04DX003 (ip), vehicle: saline",103 % of control
same,T/C,"endpoint: median survival time, dose: 80.0 mg/kg/injection, schedule: Q04DX003 (ip), vehicle: saline",103 % of control and 106 % of control
same,T/C,"endpoint: median survival time, dose: 160.0 mg/kg/injection, schedule: Q04DX003 (ip), vehicle: saline",98 % of control
COc1ccc(-n2c(=O)c(N=Nc3ccccc3)c(O)n(-c3ccc(C)cc3)c2=S)cc1,T/C,"endpoint: mean survival time, dose: 100.0 mg/kg/injection, schedule: Q01DX001 (ip), vehicle: acetone",96 % of control
same,T/C,"endpoint: mean survival time, dose: 200.0 mg/kg/injection, schedule: Q01DX001 (ip), vehicle: acetone",94 % of control
same,T/C,"endpoint: mean survival time, dose: 400.0 mg/kg/injection, schedule: Q01DX001 (ip), vehicle: acetone",96 % of control
O=[As](c1ccccc1Br)(c1ccccc1Br)c1ccccc1Br,T/C,"endpoint: mean survival time, dose: 50.0 mg/kg/injection, schedule: Q04DX003 (ip), vehicle: saline",101 % of control
same,T/C,"endpoint: mean survival time, dose: 100.0 mg/kg/injection, schedule: Q04DX003 (ip), vehicle: saline",100 % of control
same,T/C,"endpoint: mean survival time, dose: 200.0 mg/kg/injection, schedule: Q04DX003 (ip), vehicle: saline",95 % of control
CCN1CC2CCC(C(=O)O)(C2)C1=O (centres undefined),T/C,"endpoint: mean survival time, dose: 100.0 mg/kg/injection, schedule: Q01DX001 (ip), vehicle: saline",98 % of control
same,T/C,"endpoint: mean survival time, dose: 200.0 mg/kg/injection, schedule: Q01DX001 (ip), vehicle: saline",106 % of control
same,T/C,"endpoint: mean survival time, dose: 400.0 mg/kg/injection, schedule: Q01DX001 (ip), vehicle: saline",102 % of control
COC(=O)c1cncc(C(=O)OC)c1,T/C,[3],94 % of control
same,T/C,[4],92 % of control
same,T/C,[5],90 % of control
C=C(C)CON=C(c1ccccc1)c1ccccc1,T/C,[3],98 % of control
same,T/C,[4],96 % of control
same,T/C,[5],98 % of control
